Columns and labels:
[1] = tested on: Super Editor incorporated HEK293T cells; experiment: Editing enzyme induction in Super Editor incorporated HEK293T cells (fluorescent imaging / FACS); assay type: cell-based; details: 1/5/10 μg/mL doxycycline, 30/120/300 μg/mL cumate, 10/40/100 μM TMP, 0.25/1.25/6.25 μM Shield 1, 24-72 hours after treatment
Protocol: FIGS. 3A-3D show fluorescence-activated cell sorting (FACS) of individual editor induction by super editor integrated HEK293T cells. FACS analysis was done for doxycycline induced Cas9 expression (FIG. 3A), cumate induced ABE expression (FIG. 3B), trimethoprim induced CBE expression (FIG. 3C), and shield 1 induced CGBE expression (FIG. 3D). Cells were fixed 72 hours after treatment for FACS quantification. Bar graphs plotting the induction ratios of each dose curve are provided for each different genome editor enzyme induction (FIGS. 3A-3D).
Incorporation of Super Editor in HEK293T cells: 300,000 HEK293T cells were transfected by 4 μg of Super Editor plasmid and 3 μg PiggyBac transposase plasmid using 10 μL of Lipofectamine 2000 according to the manufacturer's protocol in a 6-well plate format. 2 μg/mL doxycycline was supplemented to the cells 48 hours in advance. The transfected cells were enriched twice by Fluorescence-activated cell sorting (FACS) gated with doxycycline induced TagRFP657 (far red) fluorescent signals 1 week and 3 weeks after transfection. The 1st enrichment selected the top 0.2% (10,000 cells) of the TagRFP657+ population. The 2nd enrichment selected the top 5% (374,000 cells) of the TagRFP657+ population.
Doxycycline induced Cas9, reported by TagRFP657 (far red); cumate induced ABE, reported by TagBFP (blue); trimethoprim induced CBE reported by, eGFP (green); Shield 1 induced CGBE, reported by mCherry (red). Cells were analyzed by fluorescent imaging or FACS 24-72 hours after treatment. FACS analysis was performed on 4% PFA fixed samples (FIGS. 3A-3D). Inducers were refreshed everyday with new media.

HEK293T cells = experiment: Transient induction of single module plasmids in HEK293T cells; assay type: cell-based; details: 2 μg/ml doxycycline, 120 μg/ml cumate, 10 μM TMP, 6.25 μM shield 1
Protocol: HEK293T cells were transfected with the single module plasmids comprising the corresponding regulatory element. The HEK293T cells were treated with the corresponding inducers to generate expression of the genome editing enzyme along with the fluorescent marker accompanying each genome editing enzyme. HEK293T cells were transfected with a doxycycline inducible Cas9 editing enzyme, a cumate inducible ABE, a trimethoprim (TMP) inducible CBE, and a shield 1 inducible CGBE.

CC[C@H](C(=O)N1CCCC[C@H]1C(=O)O[C@H](CCc1ccc(OC)c(OC)c1)c1cccc(OCCN2CCOCC2)c1)c1cc(OC)c(OC)c(OC)c1 [Shield 1]
induction of editing enzyme expression, reported by fluorescent protein [1]: induced CGBE
expression of genome editing enzyme and fluorescent marker after inducer treatment (HEK293T cells): CGBE and mCherry were expressed

CC(C)c1ccc(C(=O)O)cc1 [cumate]
induction of editing enzyme expression, reported by fluorescent protein [1]: induced ABE
expression of genome editing enzyme and fluorescent marker after inducer treatment (HEK293T cells): ABE and BFP were expressed

COc1cc(Cc2cnc(N)nc2N)cc(OC)c1OC [trimethoprim]
induction of editing enzyme expression, reported by fluorescent protein [1]: induced CBE
expression of genome editing enzyme and fluorescent marker after inducer treatment (HEK293T cells): CBE and eGFP were expressed
